Measurements reported in patent publication US20200237909A1, “METHODS OF TREATING OR PREVENTING BREAST CANCER METASTASES USING ANTIBODIES TO JAGGED1 AND CHEMOTHERAPEUTIC AGENTS” (The Trustees of Princeton University, priority 2017, published 2020).

Key:
Jagged1 expression = assay: Jagged1 mRNA expression in cell lines after chemotherapy agents; format: cell-based; conditions: 48 hr; for Jagged1 expression: MC3T3-E1 pre-osteoblast cells and MSCs, 25 nM paclitaxel or 10 μM cisplatin; for Jagged1 induction: endothelial cells, RAW 264.7 pre-osteoclasts, SCP28 and SUM1315-M1B1 tumor cells
Method: FIG. 5. Chemotherapy induces Jagged1 expression in osteoblast lineage cells. (A) Jagged1 mRNA expression in osteoblast MC3T3-E1-Clone #4 osteoblast cells and mesenchymal stem cells (MSC), HPMECL endothelial cells (endo), RAW264.7 pre-osteoclast cells, and SCP28 and SUM1315-M1B1 breast tumor cells 48 hr post-treatment with 25 nM paclitaxel or 10 μM cisplatin. (B) Athymic nude mice were i.v. injected with PBS or cisplatin and euthanized 48 hr later. Hind limb bones were collected for IF staining against Alp (green) and Jagged1 (red). Nuclei were counter-stained with DAPI (blue). (C-E) Athymic nude mice were treated with either PBS or cisplatin on Day 0. One day after the pre-treatment, MCF7 (C), SUM1315-M1B1 (D) or SCP28 (E) cells were delivered locally to the hind limbs of these mice by IIA injection. BLI imaging and quantification of BLI signal at Day 4. (F) Mice from experiment in E were euthanized after BLI imaging at Day 4. Hind limbs were fixed and processed for IF imaging of GFP-expressing tumor cells (green) and ALP positive osteoblasts (red). Size bar: 80 μm. In A: n=3. *p<0.05 by Student's t-test. In C-E: n=5. *p<0.05 by Student's t-test. #: statistically insignificant.
The possibility that chemotherapy agents may induce Jagged1 expression in either tumor cells or in the bone stromal cells was considered. […] Key stromal cell types in bone metastasis include osteoclasts, osteoblasts and their progenitors (such as mesenchymal stem cells (MSCs)), and endothelial cells. Whether Jagged1 could be induced in these cells and various breast cancer cell lines upon treatment of two different chemotherapy agents, paclitaxel and cisplatin, which are commonly used in the treatment of breast cancer, was tested.
Total RNAs were isolated from cells using RNeasy kit (Qiagen) following manufacturer's instructions. RNAs were reverse transcribed into cDNAs by using Superscript III reverse transcription kit (Invitrogen). Real-time RT-PCR was performed on ABI 7900 96 HT series PCR machine (Applied Biosystem) using SYBR Green Supermix (Bio-Rad Laboratories). The gene-specific primer sets were used at a final concentration of 0.5 μM. All real-time RT-PCR assays were performed in duplicate in at least two independent experiments. Relative expression values of each target gene were normalized to GAPDH mRNA level.

[1] = system: Jagged1 expression in osteoblast cells; assay: Jagged1/Alp immunostaining of hind limb bones after cisplatin; format: in vivo, nude mice; conditions: 48 hours after treatment
Method: FIG. 5. Chemotherapy induces Jagged1 expression in osteoblast lineage cells. (A) Jagged1 mRNA expression in osteoblast MC3T3-E1-Clone #4 osteoblast cells and mesenchymal stem cells (MSC), HPMECL endothelial cells (endo), RAW264.7 pre-osteoclast cells, and SCP28 and SUM1315-M1B1 breast tumor cells 48 hr post-treatment with 25 nM paclitaxel or 10 μM cisplatin. (B) Athymic nude mice were i.v. injected with PBS or cisplatin and euthanized 48 hr later. Hind limb bones were collected for IF staining against Alp (green) and Jagged1 (red). Nuclei were counter-stained with DAPI (blue). (C-E) Athymic nude mice were treated with either PBS or cisplatin on Day 0. […] BLI imaging and quantification of BLI signal at Day 4. […]
To confirm this finding in vivo, female nude mice were treated with either PBS or cisplatin. […] In the PBS control group, Jagged1-positive cells were rarely detected, and mostly co-localizing with ALP-positive osteoblasts.
Hindlimb bones were excised from mice at the end point of each experiment, immediately after the last BLI time point. […] For quantitative analysis of lesion area, a 10× objective was used to focus on the tumor region of interest and images were acquired using the AxioCamICc3 camera set to an exposure of around 100 ms. Osteoclast number was assessed as multinucleated TRAP+ cells and reported as number/field. […]

SCP28-Jagged1 cells = assay: SCP28-Jagged1 bone metastasis, late treatment with 15D11 and paclitaxel; format: in vivo, mice; conditions: in words
Method: To evaluate the combinatorial effect of 15D11 with conventional chemotherapy, we treated bone metastasis generated by SCP28-Jagged1 cells with 15D11 and paclitaxel, using the late treatment protocol (treatment initiated 1 week after IC injection) (FIG. 3A). […] Mice were treated with IgG (as negative control), 15D11, paclitaxel, or both, one week after IC injection of SCP28-Jagged1 to establish bone metastases.
For experimental bone metastasis, three models were used using intra-cardiac (IC), intra-iliac artery (IIA), and intra-tibia (i.t.) injection methods, as previously described (Andersen et al., 2003; Sethi et al., 2011; Wang et al., 2015). Bone metastasis burden was monitored by weekly BLI and X-ray imaging. At the experimental endpoint, mice were euthanized for bone histology analysis and half of the bone samples were used for μCT imaging and bone density quantification.
The initial treatment is either one day before tumor cell injection or one week after tumor cell injection as described in each experiment. For IgG or 15D11 antibody treatment, mice were i.p. injected at the dosing of 10 mg/kg, twice a week. […] For paclitaxel treatment, paclitaxol powder was first dissolved in 95% ethanol, sonicated and shaken overnight, before mixing 1:1 with cremophor (Sigma Catalog#:769193-1KG) to reach the final concentration of 20 mg/ml. […]

SCP28 cells = assay: Parental SCP28 bone metastasis, late treatment with 15D11 and paclitaxel; format: in vivo, mice; conditions: low endogenous Jagged1
Excerpt: FIG. 4. Synergistic inhibition of bone metastasis by SCP28 with combined treatment of 15D11 and chemotherapy. (A) Schematic illustration of the experimental procedure. (B) Quantification of bone metastasis burden based on BLI imaging. n=10. *p<0.05 and **p<0.01 by Mann-Whitney test. (C) Representative BLI images and X-ray images at week 6. (D) Representative H&E and TRAP staining images from the experiment. (E) Quantification of osteolytic lesions based on X-ray images. n=10. **p<0.01 by Student's t-test. (F) Quantification of TRAP+ osteoclasts from decalcified histological bone sections of hind limbs from mice, n=10. **p<0.01 by Student's t-test. Size bar: 100 μm for H&E and 50 μm for TRAP.
The strong inhibitory effect of the combined treatment on bone metastasis could potentially be explained by the combined effect of blocking Jagged1-dependent stromal engagement by 15D11 and cytotoxicity of paclitaxel to tumor cells. […]
Mice were purchased from Jackson laboratory. […] Spontaneous bone metastasis was monitored by X-ray imaging. […] Bone metastasis burden was monitored by weekly BLI and X-ray imaging. At the experimental endpoint, mice were euthanized for bone histology analysis and half of the bone samples were used for μCT imaging and bone density quantification.

Compound	Jagged1 expression (Jagged1 expression)	Jagged1 induction (Jagged1 expression)	Jagged1 expression (immunostaining, Alp positive cells) [1]	tumor burden at the end point (SCP28-Jagged1 cells)	bone metastasis burden (SCP28 cells)
N.N.[Cl][Pt][Cl] [cisplatin]	significantly increased	no significant induction	much stronger Jagged1 expression	–	–
CC(=O)O[C@H]1C(=O)[C@@]2(C)[C@H]([C@H](OC(=O)c3ccccc3)[C@]3(O)C[C@H](OC(=O)[C@H](O)[C@@H](NC(=O)c4ccccc4)c4ccccc4)C(C)=C1C3(C)C)[C@]1(OC(C)=O)CO[C@@H]1C[C@@H]2O [paclitaxel]	significantly increased	no significant induction	–	only a mild reduction of tumor burden	only slightly reduced metastatic burden
